{
  "source": "patent US10335048B2",
  "about": "“High-resolution metabolic neuroimaging” (Oregon Health & Science University, priority 2013, dated 2019)",
  "key": {"[1]": {"settings": "human, in vivo, iv; cited from earlier work"}, "[2]": {"settings": "human, in vivo", "excerpt": "A 7 T [Tesla] whole-body MRI instrument (Siemens, Erlangen Germany), with quadrature transmission and 24-channel phased-array receive head RF coils, was used. Dynamic measurements employed a single-slice inversion recovery (IR) turboflash technique (Haase A. Snapshot FLASH MRI. Applications to T1, T2, and chemical-shift imaging. Magn. Reson. Med. 1990; 13: 77-89), sampling magnetization eight post-inversion times [TIs]: the inversion pulse was non-selective. […] Gadoteridol [ProHance; Bracco Diagnostics, Inc.] was injected into an antecubital vein catheter at 2.5 mL/s using a power injector [Medrad] to deliver a dose of 28 μmol/kg (typically ^˜5 mL), followed by a 15 mL saline flush at the same rate. […] Parametric R1 maps were calculated on a voxel basis by fitting the signal magnitude at each TI with a full Bloch simulation incorporating all RF pulses and delays. […]\nDynamic measurements were obtained using a single-slice inversion recovery (IR) turboflash technique that sampled magnetization at eight time points post inversion. […] Parametric R1 maps were calculated on a voxel basis by fitting the magnitude signal intensity at each inversion time to a full Bloch simulation that incorporated all RF pulses and delays and modeled the recovery from inversion as a two-parameter single exponential using a gradient expansion algorithm. […]"}, "human prostate tumor": {"tested_on": "human prostate tumor", "settings": "cited from earlier work"}, "Na+/K+-ATPase": {"tested_on": "Na+/K+-ATPase", "settings": "within 15 minutes of direct application to the striatum; cited from earlier work"}},
  "data": [
    {"molecule": "ferumoxytol [Fe-tol]", "values": [
      {"measurement": "plasma t1/2", "setting": "[1]", "value": 14, "unit": "h"}
    ]},
    {"molecule": "CC(O)CN1CCN(CC(=O)[O-])CCN(CC(=O)[O-])CCN(CC(=O)[O-])CC1.[Gd+3]", "note": "(stereo not shown) [GdHPDO3A, gadoteridol]", "values": [
      {"measurement": "maximum K^trans in the lesion center", "setting": "[2]", "value": "above 2×10^−3 min^−1"}
    ]},
    {"molecule": "CC(=O)[13C](=O)O", "note": "[[1-^13C]pyruvate]", "values": [
      {"measurement": "[1-13C]pyruvate to [1-13C]lactate conversion rate constant", "setting": "human prostate tumor", "value": 0.045, "unit": "s⁻¹"}
    ]},
    {"molecule": "C[C@@H]1O[C@@H](O[C@H]2C[C@@H](O)[C@]3(CO)[C@H]4[C@H](O)C[C@]5(C)[C@@H](C6=CC(=O)OC6)CC[C@]5(O)[C@@H]4CC[C@]3(O)C2)[C@H](O)[C@H](O)[C@H]1O", "note": "[ouabain]", "values": [
      {"measurement": "ADC drop", "setting": "Na+/K+-ATPase", "value": 40, "unit": "%"}
    ]}
  ]
}
